# Structures can show the parent of a compound that is named as a salt.
# Key:
# [1] = tested on: angiotensin-converting enzyme; assay: in vivo inhibition of the Angiotensin I induced pressor response in anesthetized normotensive rats; conditions: p.o. administration of 3.3 mg/kg (rat), at 1 hr
# Experimental: Angiotensin I is hydrolyzed by the action of said converting enzyme to the potent pressor substance Angiotensin II. The inhibition of said enzyme prevents the generation of Angiotensin II from I and, therefore, attenuates any pressor response following an Angiotensin I challenge.
# The corresponding in vivo test is performed with male, normotensive rats, which are anesthetized with sodium 5-ethyl-5-(1-methylpropyl)-2-thiobarbiturate. A femoral artery and saphenous vein are cannulated respectively for direct blood pressure measurement and the i.v. administration of Angiotensin I and a compound of this invention. After the basal blood pressure is stabilized, pressor responses to 3 challenges of 333 ng/kg angiotensin I i.v., at 5 minute intervals, are obtained. Such pressure resonses are usually again obtained at 5, 10, 15, 30 and 60 minutes after i.v. administration or 1, 2, 3 and 4 hours after p.o. administration of the compound to be tested, and compared with the initial responses. Any observed decrease of said pressor response caused by the compounds of the invention is an indication of Angiotensin I converting enzyme inhibition.
# Illustrative of the invention, and according to the test methods previously described, the following angiotensin-converting enzyme inhibition data is obtained.
# [2] = target: T1, angiotensin-converting enzyme (Oryctolagus cuniculus, UniProt P12822); assay: in vitro inhibition of the angiotensin-converting enzyme (hippuryl-histidyl-leucine substrate); assay type: biochemical, rabbit; conditions: in vitro test; enzyme from lungs of adult male rabbits; 37° C., 30 minutes
# T1 construct: angiotensin-converting enzyme preparation (from lungs of adult male rabbits); from tissue; host or cells: lungs of adult male rabbits
# T1 sequence (P12822 34-1310): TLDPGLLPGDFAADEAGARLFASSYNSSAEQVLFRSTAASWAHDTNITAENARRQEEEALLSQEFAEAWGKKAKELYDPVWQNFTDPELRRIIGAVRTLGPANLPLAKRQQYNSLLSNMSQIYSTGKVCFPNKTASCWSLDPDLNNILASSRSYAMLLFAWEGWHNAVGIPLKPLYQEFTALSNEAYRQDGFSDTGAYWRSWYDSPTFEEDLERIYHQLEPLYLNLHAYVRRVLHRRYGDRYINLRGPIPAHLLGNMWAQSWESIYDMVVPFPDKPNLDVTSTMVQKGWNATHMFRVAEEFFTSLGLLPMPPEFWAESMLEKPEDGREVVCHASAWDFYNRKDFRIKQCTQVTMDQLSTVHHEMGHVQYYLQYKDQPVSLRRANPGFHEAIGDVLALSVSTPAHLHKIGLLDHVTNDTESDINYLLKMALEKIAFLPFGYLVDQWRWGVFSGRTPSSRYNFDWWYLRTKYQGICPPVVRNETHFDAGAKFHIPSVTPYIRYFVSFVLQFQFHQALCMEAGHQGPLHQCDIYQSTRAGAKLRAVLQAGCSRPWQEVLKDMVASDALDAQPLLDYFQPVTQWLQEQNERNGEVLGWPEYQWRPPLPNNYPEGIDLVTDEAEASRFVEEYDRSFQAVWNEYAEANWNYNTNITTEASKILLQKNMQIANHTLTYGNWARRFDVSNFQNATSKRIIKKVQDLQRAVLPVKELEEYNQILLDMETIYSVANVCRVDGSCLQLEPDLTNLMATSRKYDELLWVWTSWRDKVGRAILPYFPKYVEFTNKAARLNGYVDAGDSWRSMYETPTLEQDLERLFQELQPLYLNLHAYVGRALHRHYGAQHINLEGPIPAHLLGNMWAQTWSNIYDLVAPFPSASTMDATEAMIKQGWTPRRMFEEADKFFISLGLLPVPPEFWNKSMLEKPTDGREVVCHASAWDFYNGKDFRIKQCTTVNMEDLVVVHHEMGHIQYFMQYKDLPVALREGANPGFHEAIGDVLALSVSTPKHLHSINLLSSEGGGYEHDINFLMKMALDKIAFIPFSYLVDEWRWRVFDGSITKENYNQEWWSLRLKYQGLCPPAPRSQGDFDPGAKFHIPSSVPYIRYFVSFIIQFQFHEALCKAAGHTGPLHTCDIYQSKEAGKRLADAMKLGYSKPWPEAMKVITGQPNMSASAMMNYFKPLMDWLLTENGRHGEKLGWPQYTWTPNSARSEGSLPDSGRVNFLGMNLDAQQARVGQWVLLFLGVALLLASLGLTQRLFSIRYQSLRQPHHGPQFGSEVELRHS
# Experimental: Biophys. Acta 293, 451 (1973). According to this method, said compounds are dissolved at about 1 mM concentration in phosphate buffer. […] Said solutions are incubated at 37° C. for 30 minutes and combined with 0.75 ml of 0.6N aqueous sodium hydroxide to stop further reaction. Then 100 microliters of a 0.2% solution of o-phthalaldehyde in methanol are added at room temperature, and 10 minutes later 100 microliters of 6N hydrochloric acid. These samples are read against water in a spectrophotometer set at 360 nm, and the optical densities thereof estimated. They are corrected for the standard curve via a conversion factor expressing nanomoles of histidyl-leucine formed during said 30 minute incubation period. The results are plotted against concentration to determine the IC50, i.e., the concentration of the compound which gives half the activity of the control sample. Illustrative of the invention, and according to the test methods previously described, the following angiotensin-converting enzyme inhibition data is obtained.
Compound,inhibition of Angiotensin I pressor response (in vivo test) [1],IC50 [2]
"CCOC(=O)[C@H](CCc1ccccc1)N[C@H]1CCCc2ccccc2N(CC(=O)O)C1=O [example 8a, 1-carboxymethyl-3-(1-ethoxycarbonyl-3-phenyl-(1S)-propylamino-3,4,5,6-tetrahydro-(3S)-1-benzazocin-2-1H-one hydrochloride]",69%,
"O=C(O)CN1C(=O)[C@@H](N[C@@H](CCc2ccccc2)C(=O)O)CCCc2ccccc21 [example 7a, 1-carboxymethyl-3-(1-carboxy-3-phenyl-(1S)-propylamino)-3,4,5,6-tetrahydro-(3S)-1-benzazocin-2-1H-one hydrochloride]",,7.5 nM
"NCCCC[C@H](N[C@H]1CCCc2ccccc2N(CC(=O)O)C1=O)C(=O)O [S,S compound of example 12, 3-[(5-amino-1-(S)-carboxypentyl)amino]-1-carboxymethyl-3,4,5,6-tetrahydro-(3S)-1-benzazocin-2-1H-one hydrochloride]",,27 nM

# Reference: patent publication US4537885A, “Certain benzazocinone and benzazoninone derivatives” (Ciba Geigy Corporation, priority 1984, dated 1985)
